Measured values from publication PMC6514680, “Labdane and Abietane Diterpenoids from Juniperus oblonga and Their Cytotoxic Activity” (Molecules, 2019).
Where two headings read alike, the source gives them in different places.

How the values were obtained:
[1] = MTT cytotoxicity assay, LO2; parameters: dose or concentration left out as unconfirmed; settings: human, LO2 normal liver cells
[2] = MTT cytotoxicity assay, MCF-7; parameters: cytotoxicity at 72 h: dose or concentration left out as unconfirmed; settings: human, MCF-7 cells
Protocol: (§1) MTT assay was used to measure the in vitro cytotoxicity of the isolated compounds. Human breast adenocarcinoma cell line (MCF-7), human liver hepatocellular carcinoma cell line (HepG2), and human cervical cancer cell line (HeLa) were cultured in Dulbecco’s modified Eagle’s medium (DMEM) and Roswell Park Memorial Institute medium (RPMI 1640), which was supplemented with 10% fetal bovine serum (FBS) at 37 °C in a humidified atmosphere of 5% CO2. The cells were cultured in 96-well plates for 24 h and then treated with test compounds at various concentrations (8–125 μM) for 72 h. After incubation for another 4 h with a 20 µL aliquot of the MTT [3-(4,5-dimethylthiazol-2-yl)-2,5-diphenyl tetrazolium bromide] solution (5 mg/mL in PBS), the medium was discarded, and 150 µL of DMSO was added to dissolve the produced formazan. The absorbance was measured at 490 nm and 570 nm using a microplate reader. Doxorubicin was used as a positive control. Each experiment was carried out in triplicate. The IC50 values were calculated using Graphpad Prism 5 software.

[3] = MTT cytotoxicity assay, HepG2; parameters: cytotoxicity at 72 h / Cytotoxicity (%I) HepG2: dose or concentration left out as unconfirmed; settings: human, HepG2 cells
Protocol: as §1

[4] = MTT cytotoxicity assay, HeLa; parameters: cytotoxicity at 72 h / Cytotoxicity (%I) HeLa: dose or concentration left out as unconfirmed; settings: human, HeLa cells
Protocol: as §1

[5] = test system: three human tumor cell lines (HepG2, MCF-7, and HeLa); experiment: MTT cytotoxicity assay, summary over three tumor cell lines
[6] = test system: normal human liver cell line (LO2); experiment: MTT cytotoxicity assay, LO2; parameters: dose or concentration left out as unconfirmed; settings: LO2 normal liver cells; MTT
[7] = test system: human breast cancer cell line (MCF-7); experiment: MTT cytotoxicity assay, MCF-7; parameters: cytotoxicity at 72 h: dose or concentration left out as unconfirmed; settings: MCF-7; 4 mg/mL; MTT
Protocol: as §1

[8] = test system: human hepatocellular carcinoma cell line (HepG2); experiment: MTT cytotoxicity assay, HepG2; parameters: cytotoxicity at 72 h / Cytotoxicity (%I) HepG2: dose or concentration left out as unconfirmed; settings: HepG2; MTT
Protocol: as §1

[9] = test system: human cervical carcinoma cancer cell line (HeLa); experiment: MTT cytotoxicity assay, HeLa; parameters: cytotoxicity at 72 h / Cytotoxicity (%I) HeLa: dose or concentration left out as unconfirmed; settings: HeLa; MTT
Protocol: as §1

[10] = test system: human cervical carcinoma cancer cell line (HeLa); parameters: Cytotoxicity (%I) HeLa: dose or concentration left out as unconfirmed
Protocol: as §1

[11] = test system: normal human liver cell line (LO2); parameters: dose or concentration left out as unconfirmed
[12] = test system: human breast cancer cell line (MCF-7)
Protocol: as §1

[13] = test system: human hepatocellular carcinoma cell line (HepG2); parameters: Cytotoxicity (%I) HepG2: dose or concentration left out as unconfirmed
Protocol: as §1

Compound | cytotoxicity at 72 h [1] | cytotoxicity at 72 h [2] | cytotoxicity at 72 h [3] | cytotoxicity at 72 h [4] | also measured
C=C1CCC2C(C)(C(=O)O)CCCC2(C)C1C=CC(C)=O [Compound 1, (4R,5S,9S,10R)-13-des-ethyl-13-oxolabda-8(17),11E-dien-19-oic acid] | 20.6% | 28.4% | 18.4% | 26.4% | –
C=C1CC[C@@H]2[C@](C)(CCC[C@]2(C)C(=O)O)[C@H]1C/C=C(/C)C=O [Compound 2, 15-nor-14-oxolabda-8(17),12Z-dien-19-oic acid] | 10.6% | 21.1% | 16.1% | 23.9% | –
CC(C)c1cc2c(cc1O)[C@@]1(C)CCCC(C)(C)[C@@H]1CC2=O [Compound 3, sugiol] | 26.6% | 9.2% | 35% | 12.3% | –
CC(C)c1cc2c(cc1O)C1(C)CCCC(C)(C)C1=C(O)C2=O (centres unmarked) [Compound 6, 6,12-dihydroxyabieta-5,8,11,13-tetraen-7-one] | 27.8% | 84% | 86.6% | 83.8% | cytotoxicity in words ([5]; HepG2, MCF-7 and HeLa, MTT): moderate cytotoxicity; IC50 ([5]; Homo sapiens, read-out: IC50 values, range over all three cell lines): 24.4 to 58.4 µM; IC50 at 72 h [2]: 58.4 ± 2.45 µM; IC50 at 72 h [3]: 48.7 ± 1.31 µM; IC50 at 72 h [4]: 24.4 ± 2.05 µM
O=c1ccc2ccc(O)cc2o1 [Compound 13, umbelliferone] | 26.6% | 18% | 32.7% | 3.6% | –
COc1cccc2c1C(=O)c1c(O)c3c(c(O)c1C2=O)C[C@@](O)(C(=O)CO)C[C@@H]3O[C@H]1C[C@H](N)[C@H](O)[C@H](C)O1 [Doxorubicin, reference compound] | 46.7% | 46.5% | 42.2% | 49.5% | IC50 at 72 h [2]: 3.44 ± 1.59 µM; IC50 at 72 h [3]: 3.18 ± 1.19 µM; IC50 at 72 h [4]: 3.64 ± 1.37 µM
helioxanthin [Compound 5] | – | – | – | – | Cytotoxicity (%I) LO2 [6]: 9.05%; Cytotoxicity (%I @ 4 mg/mL) MCF-7 [7]: 10.09%; Cytotoxicity (%I) HepG2 [8]: 0.11%; Cytotoxicity (%I) HeLa [9]: 0.22%
sempervirol [Compound 10] | – | – | – | – | cytotoxicity in words [5]: weaker activity; Cytotoxicity (%I) HeLa [10]: 63.4%; IC50 [10]: 56.9 ± 2.39 µM; Cytotoxicity (%I) LO2 [11]: 19.08%; Cytotoxicity (%I @ 4 mg/mL) MCF-7 [12]: 43.4%; IC50 [12]: 80 ± 1.2 µM; Cytotoxicity (%I) HepG2 [13]: 48.67%; IC50 [13]: 64.9 ± 2.64 µM
